The values below come from US20110218188A1, “SUBSTITUTED (PYRIDYL)-AZINYLAMINE DERIVATIVES AS FUNGICIDES” (priority 2008, published 2011).

A short description of one data set: Measurement of logP values by HPLC on reversed phase columns (EEC directive 79/831 Annex V.A8). It counts as physicochemical. Particulars: pH 2.3.
On to `COC1CCCN(C(=O)c2cc(-c3ncnc(Nc4cccc(Cl)c4)n3)ccn2)C1` (stereo not drawn) [Example B179], for which the “logP [b]” value was 2.76[b].
Still for that read-out and setting: to `CCCN(CCO)C(=O)c1cc(-c2ncnc(Nc3cccc(Cl)c3)n2)ccn1` [Example B181] belongs 2.51[b].

The same data set, now with this note: pH 2.7.
The term logP denotes the decadic logarithm of the partition coefficient of the neutral form, usually between octanol and water. A lower logP goes with a more hydrophilic compound. As to `O=C(c1cc(-c2ncnc(Nc3cccc(Cl)c3)n2)ccn1)N1CCCCC1CO` (stereo not drawn) [Example B165], the logP is recorded as 2.48.
Regarding `CCN(CC(C)(C)O)C(=O)c1cc(-c2ncnc(Nc3cccc(Cl)c3)n2)ccn1` [Example B166], the logP was found to be 2.66. This logP and that of the compound before are within 0.2 log units of each other.
Turning to `CCN(CC1CCCO1)C(=O)c1cc(-c2ncnc(Nc3cccc(Cl)c3)n2)ccn1` (stereo not drawn) [Example B167], the logP is 3.09.
`COC1CCN(C(=O)c2cc(-c3ncnc(Nc4cccc(Cl)c4)n3)ccn2)CC1` [Example B169]: the log partition coefficient (logP) is 2.68.
In turn, `N#CC1CCN(C(=O)c2cc(-c3ncnc(Nc4cccc(Cl)c4)n3)ccn2)CC1` [Example B170] showed a logP of 2.59.
In turn, `CCCN(C(=O)c1cc(-c2ncnc(Nc3cccc(Cl)c3)n2)ccn1)C(C)CC` (stereo not drawn) [Example B171] displayed a logP of 4.13.
With `COCCN(C)C(=O)c1cc(-c2ncnc(Nc3cccc(Cl)c3)n2)ccn1` [Example B172], the log partition coefficient (logP) worked out at 2.57.
For `O=C(c1cc(-c2ncnc(Nc3cccc(Cl)c3)n2)ccn1)N1CCC(O)CC1` [Example B173], the logP is 2.04.
`CC(C)N(CCO)C(=O)c1cc(-c2ncnc(Nc3cccc(Cl)c3)n2)ccn1` [Example B180]: the logP was 2.45.
`O=C(NCCCO)c1cc(-c2ncnc(Nc3cccc(Cl)c3)n2)ccn1` [Example B183]: the logP turned out to be 2.4.
On the same count and under the same terms, the value for `CN1CCN(C(=O)c2cc(-c3ncnc(Nc4cccc(Cl)c4)n3)ccn2)CC1` [Example B184] was 1.5.
In general, chromatographic logP refers to lipophilicity estimated from chromatographic retention. In the case of `O=C(NO)c1cc(-c2ncnc(Nc3cccc(Cl)c3)n2)ccn1` [Example B185, 4-{4-[(3-chlorophenyl)amino]-1,3,5-triazin-2-yl}-N-hydroxypyridine-2-carboxamide], the chromatographic logP came out at 2.13.
`CON(C)C(=O)c1cc(-c2ncnc(Nc3cccc(Cl)c3)n2)ccn1` [Example B186]: the lipophilicity (logP) was determined as 2.59.
Same read-out and setting: to `Clc1cccc(Nc2ncnc(-c3ccnc(C4=NOCCO4)c3)n2)c1` [Example B187] belongs 2.63.
In turn, `COCC(C1CC1)N(C)C(=O)c1cc(-c2ncnc(Nc3cccc(Cl)c3)n2)ccn1` (stereo not drawn) [Example B188] returned a logP of 3.09.
For the compound `COC(C)C(C)N(C)C(=O)c1cc(-c2ncnc(Nc3cccc(Cl)c3)n2)ccn1` (stereo not drawn) [Example B189], the logP came out at 3.15.
In turn, `O=C(NC1CC1)c1cc(-c2ncnc(Nc3ccc(F)c(Cl)c3)n2)ccn1` [Example B192] gave a log partition coefficient (logP) of 3.31.
Still for that read-out and setting: the value for `O=C(NCCCN1CCCCCC1=O)c1cc(-c2ncnc(Nc3ccc(F)c(Cl)c3)n2)ccn1` [Example B194] was 3.19; that for `CCC(COC)NC(=O)c1cc(-c2ncnc(Nc3ccc(F)c(Cl)c3)n2)ccn1` (stereo not drawn) [Example B195] was 3.89.
The compound `CCC(C)NC(=O)c1cc(-c2ncnc(Nc3ccc(F)c(Cl)c3)n2)ccn1` (stereo not drawn) [Example B197] came in with a logP of 4.16.
The same measure, in the same setting: to `CN(CCC#N)C(=O)c1cc(-c2ncnc(Nc3ccc(F)c(Cl)c3)n2)ccn1` [Example B201] belongs 2.58; to `CCN(CC)C(=O)c1cc(-c2ncnc(Nc3ccc(F)c(Cl)c3)n2)ccn1` [Example B202], 3.13; to `CCCN(C)C(=O)c1cc(-c2ncnc(Nc3ccc(F)c(Cl)c3)n2)ccn1` [Example B203], 3.13.
As to `CN(CC1CC1)C(=O)c1cc(-c2ncnc(Nc3ccc(F)c(Cl)c3)n2)ccn1` [Example B204], the logP is 3.23.
Same read-out and setting: the value for `CN(C)C(=O)c1cc(-c2ncnc(Nc3ccc(F)c(Cl)c3)n2)ccn1` [Example B205] was 2.47; that for `CC(C)CN(C)C(=O)c1cc(-c2ncnc(Nc3ccc(F)c(Cl)c3)n2)ccn1` [Example B206] was 3.46.
In turn, `CCN(C)C(=O)c1cc(-c2ncnc(Nc3ccc(F)c(Cl)c3)n2)ccn1` [Example B207] showed a logP of 2.75.
As to `CCN(C)C(=S)c1cc(-c2ncnc(Nc3ccc(F)c(Cl)c3)n2)ccn1` [Example B209], the logP came to 3.33.
For `CCN(C)C(=O)c1cc(-c2ncnc(Nc3cccc(SC)c3)n2)ccn1` [Example B222], the logP was found to be 2.6.
Take `CCN(C)C(=S)c1cc(-c2ncnc(Nc3cccc(SC)c3)n2)ccn1` [Example B223]: the logP was 3.17.
For the compound `COCC(C)NC(=O)c1cc(-c2ncnc(Nc3ccc(C)c(Cl)c3)n2)ccn1` (stereo not drawn) [Example B225], the logP was determined as 3.8.
In the case of `Cc1ccc(Nc2ncnc(-c3ccnc(C(=O)NC4CC4)c3)n2)cc1Cl` [Example B226], the logP is 3.62. The logP values of the last two compounds are within 0.2 log units of each other.
`COCCNC(=O)c1cc(-c2ncnc(Nc3ccc(C)c(Cl)c3)n2)ccn1` [Example B227] came in with a logP of 3.48.
Same read-out and setting: to `CCN(C)C(=O)c1cc(-c2ncnc(Nc3ccc(C)c(Cl)c3)n2)ccn1` [Example B236] belongs 3.02; to `CN(CCC#N)C(=O)c1cc(-c2ncnc(Nc3cc(F)ccc3F)n2)ccn1` [Example B237], 2.1; to `CC(C)CN(C)C(=O)c1cc(-c2ncnc(Nc3cc(F)ccc3F)n2)ccn1` [Example B238], 2.9.
For `COCc1cccc(Nc2ncnc(-c3ccnc(C(=O)N(C)CCC#N)c3)n2)c1` [Example B239], the logP is 1.94.
On the same count and under the same terms, to `CCN(CC)C(=O)c1cc(-c2ncnc(Nc3cccc(COC)c3)n2)ccn1` [Example B240] belongs 2.48; to `CCCN(C)C(=O)c1cc(-c2ncnc(Nc3cccc(COC)c3)n2)ccn1` [Example B241], 2.48; to `COCc1cccc(Nc2ncnc(-c3ccnc(C(=O)N(C)CC4CC4)c3)n2)c1` [Example B242], 2.58.
Turning to `COCc1cccc(Nc2ncnc(-c3ccnc(C(=O)N(C)C)c3)n2)c1` [Example B243], the logP came to 1.91.
The compound `COCc1cccc(Nc2ncnc(-c3ccnc(C(=O)N(C)CC(C)C)c3)n2)c1` [Example B244] returned a logP of 2.66.
`CCN(C)C(=O)c1cc(-c2ncnc(Nc3cccc(COC)c3)n2)ccn1` [Example B245] registered a logP of 2.17.
For `COCc1cccc(Nc2ncnc(-c3ccnc(C(=O)N(C)C(C)C)c3)n2)c1` [Example B246], the logP is reported as 2.42.
In turn, `COCCN(C)C(=O)c1cc(-c2ncnc(Nc3cccc(COC)c3)n2)ccn1` [Example B247] showed a log partition coefficient (logP) of 2.05.
Compound `CCN(C)C(=S)c1cc(-c2ncnc(Nc3cccc(COC)c3)n2)ccn1` [Example B248] registered a logP of 2.66.
Still for that read-out and setting: the value for `COCc1cccc(Nc2ncnc(-c3ccnc(C(=S)N(C)CC4CC4)c3)n2)c1` [Example B249] was 3.12; that for `CCCN(C)C(=S)c1cc(-c2ncnc(Nc3cccc(COC)c3)n2)ccn1` [Example B250] was 3.05; that for `CCN(C)C(=O)c1cc(-c2ncnc(Nc3cccc(S(F)(F)(F)(F)F)c3)n2)ccn1` [Example B252] was 3.06.
As for `CCN(C)C(=S)c1cc(-c2ncnc(Nc3cccc(S(F)(F)(F)(F)F)c3)n2)ccn1` [Example B253, N-ethyl-N-methyl-4-(4-{[3-(pentafluoro-lambda^6-sulfanyl)phenyl]amino}-1,3,5-triazin-2-yl)pyridine-2-carbothioamide], the chromatographic logP was 3.57.
`CCOc1cccc(Nc2ncnc(-c3ccnc(C(=O)N(C)CC)c3)n2)c1` [Example B254] registered a logP of 2.6.
In the case of `CCOc1cccc(Nc2ncnc(-c3ccnc(C(=S)N(C)CC)c3)n2)c1` [Example B255], the logP is recorded as 3.15.
`CCN(C)C(=O)c1cc(-c2ncnc(Nc3cccc(C(F)(F)F)c3)n2)ccn1` [Example B256]: the logP came out at 2.86.
For the compound `CCN(C)C(=S)c1cc(-c2ncnc(Nc3cccc(C(F)(F)F)c3)n2)ccn1` [Example B257], the logP is on record as 3.41.
Still for that read-out and setting: to `CCN(C)C(=O)c1cc(-c2ncnc(Nc3cccc(C(C)C)c3)n2)ccn1` [Example B258] belongs 3.11; to `CCN(C)C(=S)c1cc(-c2ncnc(Nc3cccc(C(C)C)c3)n2)ccn1` [Example B259], 3.7; to `CCN(C)C(=O)c1cc(-c2ncnc(Nc3cccc(OC(F)(F)C(F)F)c3)n2)ccn1` [Example B260], 2.92.
`CCN(C)C(=S)c1cc(-c2ncnc(Nc3cccc(OC(F)(F)C(F)F)c3)n2)ccn1` [Example B261] came in with a logP of 3.41.
In turn, `CN(CCC#N)C(=O)c1cc(-c2ncnc(Nc3cccc(OC(F)(F)F)c3)n2)ccn1` [Example B262] registered a logP of 2.8.
On to `CCN(CC)C(=O)c1cc(-c2ncnc(Nc3cccc(OC(F)(F)F)c3)n2)ccn1` [Example B263], for which the logP stood at 3.39.
Consider `CCCN(C)C(=O)c1cc(-c2ncnc(Nc3cccc(OC(F)(F)F)c3)n2)ccn1` [Example B264], for which the logP is 3.37. This logP and that of the compound before are within 0.2 log units of each other.
Same read-out and setting: the value for `CN(CC1CC1)C(=O)c1cc(-c2ncnc(Nc3cccc(OC(F)(F)F)c3)n2)ccn1` [Example B265] was 3.48; that for `CN(C)C(=O)c1cc(-c2ncnc(Nc3cccc(OC(F)(F)F)c3)n2)ccn1` [Example B266] was 2.7; that for `CC(C)CN(C)C(=O)c1cc(-c2ncnc(Nc3cccc(OC(F)(F)F)c3)n2)ccn1` [Example B267] was 3.73.
Take `CCN(C)C(=O)c1cc(-c2ncnc(Nc3cccc(OC(F)(F)F)c3)n2)ccn1` [Example B268]: the logP was 3.
In turn, `COCCN(C)C(=O)c1cc(-c2ncnc(Nc3cccc(OC(F)(F)F)c3)n2)ccn1` [Example B270] came in with a logP of 2.86.
Still for that read-out and setting: the value for `CCN(C)C(=S)c1cc(-c2ncnc(Nc3cccc(OC(F)(F)F)c3)n2)ccn1` [Example B271] was 3.57; that for `COc1cccc(Nc2ncnc(-c3ccnc(C(=O)N(C)CCC#N)c3)n2)c1` [Example B272] was 2.11.
Compound `CCN(CC)C(=O)c1cc(-c2ncnc(Nc3cccc(OC)c3)n2)ccn1` [Example B273] showed a logP of 2.59.
Regarding `CCCN(C)C(=O)c1cc(-c2ncnc(Nc3cccc(OC)c3)n2)ccn1` [Example B274], the logP amounted to 2.61.
